Measured values: the supplement of paper PMC10307832

Tests used:
Assay in all cases: relative viability (nuclei count vs DMSO), 5 days (fraction); higher = more cells survive
[1] = compound: CC1=CC=C(C=C1)C(=O)CN2C3=C(CCCC3)SC2=N [Pifithrin_alpha] + CC(=O)c1c(C)c2cnc(Nc3ccc(N4CCNCC4)cn3)nc2n(C2CCCC2)c1=O [Palbociclib] (partner 0.5 µM)
Summary of the method: (§1)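 Dosing by pin tool came one day after lung cancer cell lines were seeded in 1536-well plates, using either one drug or a fixed anchor-drug dose plus five library-drug doses (not always all listed) in √10 steps. After 5 days, nuclei were counted on 4× images. Relative viability is treated-well nuclei count divided by vehicle-well nuclei count, and values are medians of duplicate plates.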

Axitinib + Linsitinib = compound: CNC(=O)c1ccccc1Sc1ccc2c(/C=C/c3ccccn3)n[nH]c2c1 [Axitinib] + C[C@]1(O)C[C@@H](c2nc(-c3ccc4ccc(-c5ccccc5)nc4c3)c3c(N)nccn32)C1 [Linsitinib] (partner 1 µM)
Summary of the method: as §1

[2] = compound: CC1=CC=C(C=C1)C(=O)CN2C3=C(CCCC3)SC2=N [Pifithrin_alpha] + CC(C)C[C@H](NC(=O)[C@H](Cc1ccccc1)NC(=O)c1cnccn1)B(O)O [Bortezomib] (partner 0.002 µM)
Summary of the method: as §1

Bemcentinib + OSI-027 = compound: Nc1nc(Nc2ccc3c(c2)CC[C@@H](N2CCCC2)CC3)nn1-c1cc2c(nn1)-c1ccccc1CCC2 [Bemcentinib] + COc1cccc2cc(-c3nc([C@H]4CC[C@H](C(=O)O)CC4)n4ncnc(N)c34)[nH]c12 [OSI-027] (partner 0.5 µM)
Summary of the method: as §1

| Cell Line | relative viability ([1]; first compound 3.162 µM) | relative viability ([1]; first compound 10 µM) | relative viability ([1]; first compound 100 µM) | relative viability (Axitinib + Linsitinib; first compound 0.005 µM) | relative viability (Axitinib + Linsitinib; first compound 0.01581 µM) | relative viability (Axitinib + Linsitinib; first compound 0.05 µM) | relative viability (Axitinib + Linsitinib; first compound 0.1581 µM) | relative viability (Axitinib + Linsitinib; first compound 0.5 µM) | relative viability ([2]; first compound 3.162 µM) | relative viability ([2]; first compound 10 µM) | relative viability ([2]; first compound 100 µM) | relative viability (Bemcentinib + OSI-027; first compound 0.04 µM) | relative viability (Bemcentinib + OSI-027; first compound 0.1265 µM) | relative viability (Bemcentinib + OSI-027; first compound 0.4 µM) | relative viability (Bemcentinib + OSI-027; first compound 1.265 µM) | relative viability (Bemcentinib + OSI-027; first compound 4 µM) | relative viability ([1]; first compound 1 µM) | relative viability ([1]; first compound 31.62 µM) | relative viability ([2]; first compound 1 µM) | relative viability ([2]; first compound 31.62 µM) |
| --- | --- | --- | --- | --- | --- | --- | --- | --- | --- | --- | --- | --- | --- | --- | --- | --- | --- | --- | --- | --- |
| LCLC-97TM1 | 0.293 | 0.204 | 0.225 | 0.187 | 0.226 | 0.199 | 0.179 | 0.186 | 0.596 | 0.397 | 0.487 | 0.649 | 0.527 | 0.538 | 0.542 | 0.598 | – | – | – | – |
| LCLC-103H | 0.518 | 0.472 | 0.456 | 1.27 | 1.08 | 1.05 | 1.05 | 1.03 | 1.08 | 0.902 | 1.25 | 0.479 | 0.5 | 0.452 | 0.422 | 0.448 | 0.525 | 0.464 | 1.12 | 0.831 |
| LOU-NH91 | 0.537 | 0.516 | 0.523 | 1.08 | 0.595 | 0.997 | 0.948 | 0.961 | 0.475 | 0.445 | 0.503 | 0.697 | 0.703 | 0.721 | 0.749 | 0.775 | 0.471 | 0.491 | 0.409 | 0.414 |
| LU99A | 0.445 | 0.387 | 0.453 | 0.611 | 0.561 | 0.5 | 0.483 | 0.553 | 1.24 | 1.19 | 1.24 | 0.283 | 0.279 | 0.28 | 0.285 | 0.275 | 0.39 | – | 1.09 | – |
| LXF-289 | 0.625 | 0.591 | 0.6 | 0.991 | 0.952 | 0.972 | 0.962 | 0.968 | 1.01 | 1.02 | 0.962 | 0.744 | 0.837 | 0.782 | 0.801 | 0.819 | 0.591 | 0.529 | 1.01 | 0.813 |
| NCI-H23 | 0.413 | 0.445 | 0.413 | 0.66 | 0.618 | 0.653 | 0.587 | 0.721 | 0.978 | 1.06 | 0.875 | 0.581 | 0.612 | 0.713 | 0.447 | 0.684 | 0.537 | 0.351 | 0.917 | 0.61 |
| NCI-H322M | 0.56 | 0.501 | 0.525 | 0.932 | 0.897 | 0.892 | 0.889 | 0.827 | 1.07 | 1.29 | 1.03 | 0.585 | 0.596 | 0.597 | 0.621 | 0.597 | 0.381 | 0.474 | 1.19 | 1.26 |
| NCI-H441 | 0.249 | 0.217 | 0.19 | 0.593 | 0.52 | 0.519 | 0.582 | 0.576 | 0.821 | 0.442 | 0.503 | 0.583 | 0.695 | 0.765 | 0.558 | 0.659 | 0.203 | – | 0.245 | 0.448 |
| NCI-H460 | 0.102 | 0.12 | 0.0814 | 0.94 | 0.875 | 0.861 | 0.716 | 0.854 | 1.14 | 0.661 | 0.438 | 0.73 | 1.2 | 0.827 | 0.686 | 0.851 | 0.102 | 0.0866 | 1.51 | – |
| NCI-H520 | 0.254 | 0.26 | 0.222 | 0.972 | 0.996 | 0.989 | 0.84 | 1.03 | 0.771 | 0.567 | 0.739 | 0.237 | 0.24 | 0.262 | 0.247 | 0.258 | 0.203 | 0.205 | 0.64 | 0.386 |
| NCI-H647 | 0.364 | 0.353 | 0.285 | 1.23 | 1.27 | 1.19 | 1.25 | 1.44 | 0.966 | 0.706 | 0.736 | 0.696 | 0.799 | 0.637 | 0.666 | 0.649 | 0.376 | 0.269 | 0.992 | – |
| NCI-H661 | 0.4 | 0.36 | 0.334 | 0.717 | 0.58 | 0.418 | 0.542 | 0.666 | 0.82 | 0.909 | 1.02 | 0.716 | 0.719 | 0.762 | 0.775 | 0.745 | 0.397 | 0.386 | 0.784 | 0.925 |
| NCI-H727 | 0.678 | 0.657 | 0.667 | 0.415 | 0.246 | 0.311 | 0.246 | 0.432 | 0.958 | 0.696 | 0.793 | 0.552 | 0.631 | 0.645 | 0.592 | 0.576 | 0.615 | 0.636 | 0.786 | 0.446 |
| NCI-H838 | 0.189 | 0.203 | 0.183 | 1.04 | 1.01 | 1.1 | 1 | 1.19 | 0.628 | 0.599 | 0.62 | 0.38 | 0.434 | 0.371 | 0.442 | 0.372 | 0.192 | 0.188 | 0.786 | 0.626 |
| NCI-H1355 | 0.283 | 0.301 | 0.257 | 0.834 | 0.811 | 0.845 | 0.865 | 0.819 | 1.04 | 0.954 | 1.03 | 0.379 | 0.412 | 0.46 | 0.399 | 0.44 | 0.376 | 0.249 | 1.17 | 0.789 |
| NCI-H1437 | 0.326 | 0.218 | 0.172 | 1.02 | 1.07 | 1 | 0.898 | 0.797 | 0.363 | 0.401 | 0.281 | 0.884 | 0.845 | 0.995 | 0.961 | 0.915 | 0.325 | 0.217 | 0.567 | 0.319 |
